Results taken from US9956181B2, “Composition of nanoformulated lycopene and method of using the composition” (priority 2015, dated 2018).

Assays:
[1] = tested on: ovariectomized (OVX) rats; experiment: OVX rat study: in vivo pQCT densitometry of tibia metaphysis; set-up: species or system Wistar rats; settings: 12 weeks, versus OVX control, P<0.001
Procedure: (§1) A total of 264 Wistar female rats, ˜6 months old, were supplied by the Animal House at King Fahd Medical Research Center (KFMRC), KAU. Rats were housed in individual cages and maintained at 22° C. with a 12-h light/dark cycle. During the study period, rats were given standard rodent chow diet ad libitum (commercial rat cubes containing approximately 18% protein, 3% fat, 77% carbohydrate, and 2% of an inorganic-salt mixture with a vitamin supplement by weight, supplied by Grain Silos and Flour Mills Organization, Jeddah, Saudi Arabia) and water until the onset of intervention. Prior to surgery, rats were anesthetized with ketamine [(10% ketamine hydrochloride (80 mg/kg body weight), Cayman Chemical, Michigan, USA] and xylazine [(2% xylazine hydrochloride, 10 mg/kg body weight), Sigma-Aldrich Co., St. Louis, USA]. A single longitudinal skin incision was made on the dorsal midline at the level of the kidneys and both ovaries were ligated and removed to produce an ovariectomy in all OVX group animals. A SHAM-operated group, acting as a negative control for the effect of ovariectomy on bone parameters, underwent bilateral laparotomy, during which the ovaries were exposed but remained intact. […] Peripheral Quantitative CT (pQCT) scans were made of the proximal tibia metaphysis and the diaphysis. […]

[2] = tested on: ovariectomized (OVX) rats; experiment: OVX rat study: ex vivo μCT analysis of tibial metaphysis and femur diaphysis; type: in vivo, Wistar rats
Procedure: (§2) A total of 264 Wistar female rats, ˜6 months old, were supplied by the Animal House at King Fahd Medical Research Center (KFMRC), KAU. Rats were housed in individual cages and maintained at 22° C. with a 12-h light/dark cycle. During the study period, rats were given standard rodent chow diet ad libitum (commercial rat cubes containing approximately 18% protein, 3% fat, 77% carbohydrate, and 2% of an inorganic-salt mixture with a vitamin supplement by weight, supplied by Grain Silos and Flour Mills Organization, Jeddah, Saudi Arabia) and water until the onset of intervention. Prior to surgery, rats were anesthetized with ketamine [(10% ketamine hydrochloride (80 mg/kg body weight), Cayman Chemical, Michigan, USA] and xylazine [(2% xylazine hydrochloride, 10 mg/kg body weight), Sigma-Aldrich Co., St. Louis, USA]. A single longitudinal skin incision was made on the dorsal midline at the level of the kidneys and both ovaries were ligated and removed to produce an ovariectomy in all OVX group animals. A SHAM-operated group, acting as a negative control for the effect of ovariectomy on bone parameters, underwent bilateral laparotomy, during which the ovaries were exposed but remained intact. […] The lycopene-supplemented groups were given lycopene (15, 30 and 45 mg/kg body weight per day) dissolved in corn oil by daily intra-gastric administration for the experimental period of 12 weeks. The SHAM, OVX and ALN control groups were given the same volume of corn oil without lycopene treatment. […] A 12-week randomized placebo-controlled study in order to examine the protective effects of lycopene supplementation on bone mass and fragility in OVX rats was concluded. Prior to surgery, body weight and bone mineral density (BMD) were obtained for all animals. Rats were randomized using a computer-generated randomization code into one of six groups: (1) sham-operated (SHAM; n=44); (2) ovariectomized control (OVX; n=44); (3) OVX lycopene-supplemented (15 mg/kg body weight per day) (n=44); (4) OVX lycopene-supplemented (30 mg/kg body weight per day) (n=44); (5) OVX lycopene-supplemented (45 mg/kg body weight per day) (n=44) and (6) OVX alendronate-treated (ALN) [2.0 μg/kg body weight per day subcutaneously (sc)] (n=44). Alendronate is an anti-resorptive agent for the treatment of osteoporosis and was used as a positive therapy control. […] All OVX groups were pair-fed with the SHAM group throughout the study to avoid the possible effects of ovariectomy-induced over-consumption and subsequent excessive weight gain. Treatment started 1 week after the surgery: this period of rest allowed the rats to recover from the stress associated with the surgery. In addition, after surgery, rats were administered Diclofenac sodium injection (20 mg/Kg body weight) to reduce the pain associated with the surgery. Rats were weighed and examined daily. Blood and urine samples were collected at baseline, during, and at the end of treatment for measurement of various BTMs and other analytes. In vivo dual energy x-ray absorptiometry (DXA) measurements were made for the bone mineral content (BMC) and BMD of the whole body, lumbar spine (L1-L4), and the right humerus, together with body composition at 12 weeks of treatment. One day following the post-test DXA assessments (at 12 weeks, 16 rats in each group), animals were euthanized by decapitation and right and left femurs were extracted for further biomechanical and histomorphometric analyses. Blood and urine samples were collected from all experimental groups to measure biochemical analytes and BTMs at baseline and 4, 8, and 12 weeks of treatment. Peripheral Quantitative CT (pQCT) scans were made of the proximal tibia metaphysis and the diaphysis. In vivo micro-computed tomographic (μCT) scans of the proximal tibia were obtained during the treatment period to monitor changes in bone mass and microarchitecture. […]

[3] = tested on: ovariectomized (OVX) rats; experiment: OVX rat study: ex vivo pQCT and biomechanical testing of lumbar spine and femur; type: in vivo, Wistar rats; settings: 12 weeks
Procedure: as §2, with “One day following the post-test DXA assessments (at 12 weeks, 16 rats in each group), animals were euthanized by decapitation and right and left femurs were extracted for further biomechanical and histomorphometric analyses. Blood and urine samples were collected from all experimental groups to measure biochemical analytes and BTMs at baseline and 4, 8, and 12 weeks of treatment.” left out, “diaphysis.” for “diaphysis. In vivo micro-computed tomographic (μCT) scans of the proximal tibia were obtained during the treatment period to monitor changes in bone mass and microarchitecture.”

[4] = tested on: ovariectomized (OVX) rats; experiment: OVX rat study: serum minerals, enzymes and hormones; type: in vivo, Wistar rats; settings: OVX rats; lycopene 45 mg/kg/day; ALN 2.0 μg/kg/day sc; P<0.001
Procedure: as §2, with “In addition, after surgery, rats were administered Diclofenac sodium injection (20 mg/Kg body weight) to reduce the pain associated with the surgery. Rats were weighed and examined daily. Blood and urine samples were collected at baseline, during, and at the end of treatment for measurement of various BTMs and other analytes. In vivo dual energy x-ray absorptiometry (DXA) measurements were made for the bone mineral content (BMC) and BMD of the whole body, lumbar spine (L1-L4), and the right humerus, together with body composition at 12 weeks of treatment. One day following the post-test DXA assessments (at 12 weeks, 16 rats in each group), animals were euthanized by decapitation and right and left femurs were extracted for further biomechanical and histomorphometric analyses. Blood and urine samples were collected from all experimental groups to measure biochemical analytes and BTMs at baseline and 4, 8, and 12 weeks of treatment.” left out, “diaphysis.” for “diaphysis. In vivo micro-computed tomographic (μCT) scans of the proximal tibia were obtained during the treatment period to monitor changes in bone mass and microarchitecture.”

[5] = tested on: ovariectomized (OVX) rats; experiment: OVX rat study: dynamic bone histomorphometry of tibial metaphysis and diaphysis; type: in vivo, Wistar rats; settings: ALN group, tibial diaphysis, for the most part
Procedure: as §2

[6] = tested on: ovariectomized (OVX) rats; experiment: OVX rat study: biochemical bone turnover markers; type: in vivo, Wistar rats; settings: ALN 2.0 μg/kg/day sc
Procedure: as §2, with “In addition, after surgery, rats were administered Diclofenac sodium injection (20 mg/Kg body weight) to reduce the pain associated with the surgery. Rats were weighed and examined daily. Blood and urine samples were collected at baseline, during, and at the end of treatment for measurement of various BTMs and other analytes. In vivo dual energy x-ray absorptiometry (DXA) measurements were made for the bone mineral content (BMC) and BMD of the whole body, lumbar spine (L1-L4), and the right humerus, together with body composition at 12 weeks of treatment. One day following the post-test DXA assessments (at 12 weeks, 16 rats in each group), animals were euthanized by decapitation and right and left femurs were extracted for further biomechanical and histomorphometric analyses. Blood and urine samples were collected from all experimental groups to measure biochemical analytes and BTMs at baseline and 4, 8, and 12 weeks of treatment.” left out, “diaphysis.” for “diaphysis. In vivo micro-computed tomographic (μCT) scans of the proximal tibia were obtained during the treatment period to monitor changes in bone mass and microarchitecture.”

[7] = tested on: ovariectomized (OVX) rats; experiment: OVX rat study: in vivo DXA densitometry of lumbar spine and humerus; set-up: species or system Wistar rats; settings: 12 weeks, versus OVX control
Procedure: as §1

[8] = 12 weeks, lycopene, ALN 2.0 μg/kg/day, P<0.001

NCCCC(O)(P(=O)(O)O)P(=O)(O)O [ALN, alendronate, reference compound]
OVX-induced bone loss (total and trabecular BMD, proximal tibia, pQCT) [1]: prevented | decrease in Tb.Sp, tibia metaphysis (μCT), compared with OVX group [2, 8]: 37.3% | increase in BV/TV, tibia metaphysis (μCT), compared with OVX group [2, 8]: 128.9% | increase in Tb.N, tibia metaphysis (μCT), compared with OVX group [2, 8]: 25.8% | relative bone volume (BV/TV) of the femur diaphysis (μCT) ([2]; OVX rats, 12 weeks): nor lycopene or ALN treatment had significant effects | femoral cortical values for Ct.Th and Ct.Po (μCT) ([2]; lycopene 30 and 45 mg/kg/day, ALN, versus SHAM and OVX groups): improved | OVX-induced decrease in cortical thickness ([3]; lycopene particularly 45 mg/kg/day, alendronate 2.0 μg/kg/day): prevented | lumbar spine biomechanical / bone strength parameters ([3]; lycopene particularly 30 and 45 mg/kg/day, ALN 2.0 μg/kg/day, P<0.05): significantly increased | serum PTH values versus other groups [4]: significantly higher | OVX-induced effects on cortical bone indices [5]: also prevented | OVX-induced increases in s-CTX and u-DPD levels ([6]; P<0.001): prevented | s-OC and s-PINP levels compared with OVX control ([6]; week 12, P<0.001): significantly decreased | OVX-induced bone loss (BMC and BMD, lumbar spine and humerus, DXA) [7]: prevented
